# Source: patent US20130274212A1, “Sesterterpene Compounds and Use Thereof” (SNU R&DB FOUNDATION, priority 2010, published 2013)
# Experiments:
# Nurr1 = Nurr1 (Mus musculus, UniProt Q06219); assay: GAL-mNurr1 luciferase reporter transfection assay in CV-1 cells; format: cell-based; details: GAL-mNurr1, luciferase corrected by β-galactosidase, 24 hours
# Experimental: (§1) Animal cell line CV-1 was used in transfection search. Cells were cultured in DMEM medium within a cell incubator containing 5% carbon dioxide at 37° C. The medium contained 10% fetal bovine serum (FBS), 100 U/ml penicillin, and 100 μg/ml streptomycin. On day 1 of the experiment, CV1 cells were seeded in a 96-well plate at 5,000 cells/well. On day 2, the seeded cells were transfected with plasmid expressing GAL-mNurr1, plasmid expressing luciferase gene, and plasmid expressing β-galactosidase by using a transfection reagent, Superfect (QIAGEN). After 16 hours, the transfected cells were treated with compounds of Chemical Formula I dissolved in dimethylsulfoxide (DMSO) by the concentrations. Cells treated with dimethylsulfoxide having the final concentration of 1% were used as a negative control group. After culturing for 24 hours, the cells were lysed by using a lysis buffer, and luciferin was added thereto to measure the luciferase activity by a luminometer. After addition of an ONPG reagent, β-galactosidase activity was measured by an ELISA reader. The measured luciferase value was corrected by the activity value of β-galactosidase. […] Accordingly, it was verified that the compounds of Chemical Formula I were compounds selective to Nurr1.
# LXR = assay: GAL-hLXRa or GAL-hLXRB luciferase reporter antagonist assay in CV-1 cells; format: cell-based, human; details: LXR agonist T0901517 500 nM
# Experimental: as §1, with “expressing GAL-hLXRa or GAL-hLXRB,” for “expressing GAL-mNurr1,”, “expressing β-galactosidase,” for “expressing β-galactosidase”, “the concentrations (here, the final concentration of the LXR agonist, T0901517, was 500 nM).” for “the concentrations.”, “I are antagonist” for “I were”, “to LXR.” for “to Nurr1.”
# [1] = system: BKS.Cg-+Lepr^db/+Lepr^db (db/db) mice; assay: Anti-diabetic efficacy in db/db mice (blood sugar, insulin, adiponectin, glucose and insulin tolerance); format: in vivo, mouse
# Experimental: In the present example, in order to verify efficacy to prevent and treat diabetes of the compound of Chemical Formula I (CMDD-X or Compound 7) according to the present invention, BKS.Cg-+Lepr^db/+Lepr^db (db/db) mice as an insulin-independent diabetes animal model and general mice (C57BL/6J) fed with high-fat feedstuff were used. After the disease animal model was orally administered with CMDD-X, the diabetes-related index between the administered group and the control group was measured to verify the efficacy as an agent for preventing and treating diabetes. BKS.Cg-+Lepr^db/+Lepr^db (db/db) mice (male, 7-week old) as type 2 diabetes animal model were purchased and used. The experiment animals were adapted to a housing environment for 1 week while pellet type general diet (lab-chow) was supplied, and then divided into 2 groups of 18 mice each by randomized block design to have similar blood sugar and body weight. For general mice fed with high-fat feedstuff as another animal model, 6-week old C57BL/6J mice was purchased, and then were adapted to a lap environment for 2 weeks. After that, high-fat diet containing 35% fat diet (weight ratio, Research Diets. Co. Ltd.) was supplied for 14 weeks. The efficacy to prevent and treat diabetes by CMDD-X was observed through oral administration. A mouse fed with only 0.5% carboxylmethyl cellulose, as a medicine delivery, was used as a negative control group. The medicine was orally administered to the db/db mice for 4 weeks, a total of 28 days, and to the C57BL/6J mice, which was fed with the high-fat diet, for the last 6 weeks, at a dose of 10 mg/kg/day. The experiment animals after administration were fasted for 15 hours before autopsy, and then the blood taken from the orbital venous treated with heparin. […] The other organ tissues were rapidly cooled in the liquid nitrogen immediately after removal thereof, and kept at −70° C. and then analyzed. T-test was conducted with respect to the control group and the administered group, a significant difference of less than 5% (P<0.05) was determined as having have a statistical significance.
# In order to measure the blood sugar reduction efficacy of the compound of Chemical Formula I (CMDD-X or Compound 7), the blood was collected through tail veins of the db/db mice before experiment ending, after feeding, and after stomach was empty for 15 hours, and the blood sugar was measured by using a glucose oxidase method. […]
# The insulin and adiponectin concentrations of the plasma, obtained from the orbital venous of the db/db mice orally administered with CMDD-X (or Compound 7) for 4 weeks, were measured by using an Elisa Kit. […]
# [2] = system: Gyk, LXR, SREBP1c, SCD1, PPARa, UCP gene expression; assay: Gene expression analysis (micro-array, Q-RT PCR) in diabetic mice fed with compound; format: in vivo, mouse
# Experimental: Gene expression analysis was conducted to establish the mechanism. The gene analysis was conducted by using micro-array and the Q-RT PCR method. […] Expressions of PPARa and UCP, which are genes for burning the newly generated fat to release heat, were increased (FIG. 13).
# db/db mice = assay: Renal failure as diabetes complication: blood urea nitrogen in db/db mice; format: in vivo, mouse; details: oral 10 mg/kg/day, 4 weeks
# Experimental: In order to verify the efficacy to treat renal failure as a diabetes complication, a db/db disease animal model was used. 8-week old db/db mice were orally administered with the compound of Chemical Formula I (CMDD-X or Compound 7) at a dose of 10 mg/kg/day for 4 weeks, and then the blood urea nitrogen as a marker to treat renal failure was measured.
# [3] = system: C57BL/6 mice administered with MPTP; assay: MPTP-induced Parkinson's disease mice, Rotarod exercise capacity; format: in vivo, mouse; details: oral 5 mg/kg once per day for 5 days before MPTP 25 mg/kg; measured after 3 days
# From the text: In the present example, in order to verify efficacy to prevent and treat Parkinson's Disease of the compound of Chemical Formula I according to the present invention in the Parkinson's Disease as one of neurodegenerative diseases, mice administered with 1-methyl-4-phenyl-1,2,3,6-tetrahydropyridine (MPTP) were used. The efficacy to prevent and treat the Parkinson's Disease was verified by administering the compound of Chemical Formula I (CMDD-X or Compound 7) to a Parkinson's Disease-induced disease model and then measuring exercise capacity of the mice. C57BL/6 mice (male, 12-week old) were used. The mice were adapted to a housing environment for 1 week while pellet type general diet was supplied, and then divided into 3 groups of 5 mice each to have similar body weights. Before MPTP administration, the compound CMDD-X was orally administered at a concentration of 5 mg/kg. After 3 hours, probenecid as MPTP efflux inhibitor was intraperitoneally administered to the mice at a concentration of 250 mg/kg, and, after 2 hours, 25 mg/kg of MPTP was intraperitoneally administered. Administration was conducted once per one day for a total of 5 days, and, after 3 days, exercise capacity of the mice was measured by using the Rotarod. […]
# Sequence of Nurr1 (Q06219 360-598 limits assumed): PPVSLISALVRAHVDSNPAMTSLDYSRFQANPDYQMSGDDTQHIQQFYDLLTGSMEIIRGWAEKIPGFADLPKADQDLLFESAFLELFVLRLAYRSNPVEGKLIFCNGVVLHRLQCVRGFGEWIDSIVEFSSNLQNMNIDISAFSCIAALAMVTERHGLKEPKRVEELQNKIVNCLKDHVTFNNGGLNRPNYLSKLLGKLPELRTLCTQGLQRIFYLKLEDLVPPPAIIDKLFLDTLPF
EC50 (Nurr1) [nM],IC50 (LXR) [nM],SMILES,insulin tolerance test: final blood sugar decreased as compared with the control group ([1]; insulin 3 unit/kg) [%],"blood sugar after food intake, lower than that of the control group ([1]; oral 10 mg/kg/day, 4 weeks) [%]","blood sugar at the time of an empty stomach, reduction ([1]; oral 10 mg/kg/day, 4 weeks, fasted 15 hours) [%]","blood insulin concentration, relative to that of the control group ([1]; oral 10 mg/kg/day, 4 weeks, plasma, Elisa Kit) [%]","expressions of LXR, SREBP1c, and SCD1 [2]","expression of Gyk (glycolysis biomarker), increase ([2]; micro-array and Q-RT PCR) [times]",efficacy on renal failure (blood urea nitrogen) (db/db mice),exercise capacity (Rotarod) [3]
28,21,CC(C)=CCC/C(C)=C/[C@@H]1CC(C)=C[C@]2(C=C(COS(=O)(=O)c3ccc(C)cc3)[C@H]3CC(=O)C(C)=C[C@H]3O2)O1 [Compound 1],,,,,,,,
7,5,CC(C)=CCC/C(C)=C/[C@@H]1CC(C)=C[C@]2(C=C(C=O)[C@H]3CC(=O)C(C)=C[C@H]3O2)O1 [Compound 4],,,,,,,,
32,11,CC(C)=CCC/C(C)=C/[C@@H]1CC(C)=C[C@]2(C=C(CF)[C@H]3CC(=O)C(C)=C[C@H]3O2)O1 [Compound 7],58,27,28,73,very increased,1.3,somewhat superior efficacy as compared with CMDD-X,the same results as CMDD-X
25,85,C#CCOCC1=C[C@]2(C=C(C)C[C@@H](/C=C(\C)CCC=C(C)C)O2)O[C@@H]2C=C(C)C(=O)C[C@H]12 [Compound 8],,,,,,,,
